Results as given in patent US8658604B2, “Template-fixed beta-hairpin peptidomimetics with protease inhibitory activity” (Polyphor Ltd, priority 2005, dated 2014).
Where a SMILES comes first, the peptide text is derived from it.

The compounds below were run against T1, CathepsinG, from human neutrophils (Homo sapiens, UniProt P08311) (assay: Enzymatic assay, cathepsin G). Settings: Cathepsin G IC50.
T1 sequence (P08311 21-244): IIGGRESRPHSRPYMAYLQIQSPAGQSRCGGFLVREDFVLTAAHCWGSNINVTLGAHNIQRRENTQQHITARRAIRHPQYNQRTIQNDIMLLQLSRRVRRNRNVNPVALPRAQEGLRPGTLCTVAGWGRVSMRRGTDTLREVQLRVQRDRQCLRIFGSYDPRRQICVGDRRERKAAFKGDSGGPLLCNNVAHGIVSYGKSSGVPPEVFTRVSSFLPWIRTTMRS
In the case of `CC[C@H](C)[C@@H]1NC(=O)[C@@H]2CCCN2C(=O)[C@@H]2CCCN2C(=O)[C@H](CC(=O)O)NC(=O)[C@H](CO)NC(=O)[C@H](CCCCN)NC(=O)[C@H]([C@@H](C)O)NC(=O)[C@@H]2CSSC[C@H](NC1=O)C(=O)N[C@@H](Cc1ccc(O)cc1)C(=O)N1CCC[C@@H]1C(=O)N1CCC[C@H]1C(=O)N[C@@H](Cc1ccc(N)cc1)C(=O)N2` [Ex. 32] (HELM PEPTIDE1{[Nc1ccc(C[C@H](N[*:1])C(=O)[*:2])cc1].C.T.K.S.D.P.P.I.C.Y.[dP].P}$PEPTIDE1,PEPTIDE1,2:R3-10:R3|PEPTIDE1,PEPTIDE1,1:R1-13:R2$$$V2.0), the IC50 is reported as 52 nM. `CCCC[C@@H]1NC(=O)[C@@H]2CCCN2C(=O)[C@H]2CCCN2C(=O)[C@H](CC(N)=O)NC(=O)[C@@H]2CSSC[C@H](NC1=O)C(=O)N[C@@H]([C@@H](C)O)C(=O)N[C@@H](CCCCN)C(=O)N[C@@H](CO)C(=O)N[C@@H](CC(=O)O)C(=O)N1CCC[C@H]1C(=O)N1CCC[C@H]1C(=O)N[C@@H]([C@@H](C)CC)C(=O)N2` [Ex. 41] (HELM PEPTIDE1{[Nle].C.T.K.S.D.P.P.I.C.N.[dP].P}$PEPTIDE1,PEPTIDE1,2:R3-10:R3|PEPTIDE1,PEPTIDE1,1:R1-13:R2$$$V2.0) gave an IC50 of 49 nM. For `CC[C@H](C)[C@@H]1NC(=O)[C@@H]2CCCN2C(=O)[C@@H]2CCCN2C(=O)[C@H](CC(=O)O)NC(=O)[C@H](CO)NC(=O)[C@H](CCCCN)NC(=O)[C@H]([C@@H](C)O)NC(=O)[C@@H]2CSSC[C@H](NC1=O)C(=O)N[C@@H](CC(N)=O)C(=O)N1CCC[C@@H]1C(=O)N1CCC[C@H]1C(=O)N[C@@H](Cc1ccccc1Cl)C(=O)N2` [Ex. 45] (HELM PEPTIDE1{[O=C([C@H](Cc1ccccc1Cl)N[*:1])[*:2]].C.T.K.S.D.P.P.I.C.N.[dP].P}$PEPTIDE1,PEPTIDE1,2:R3-10:R3|PEPTIDE1,PEPTIDE1,1:R1-13:R2$$$V2.0), the IC50 was 47 nM. Compound `CC[C@H](C)[C@@H]1NC(=O)[C@@H]2CCCN2C(=O)[C@@H]2CCCN2C(=O)[C@H](CC(=O)O)NC(=O)[C@H](CO)NC(=O)[C@H](CCCCN)NC(=O)[C@H]([C@@H](C)O)NC(=O)[C@@H]2CSSC[C@H](NC1=O)C(=O)N[C@@H](CC(N)=O)C(=O)N1CCC[C@@H]1C(=O)N1CCC[C@H]1C(=O)N[C@@H](CC1CCCCC1)C(=O)N2` [Ex. 33] (HELM PEPTIDE1{[Cha].C.T.K.S.D.P.P.I.C.N.[dP].P}$PEPTIDE1,PEPTIDE1,2:R3-10:R3|PEPTIDE1,PEPTIDE1,1:R1-13:R2$$$V2.0) has an IC50 of 45 nM. Work on `C[C@@H](O)[C@@H]1NC(=O)[C@@H]2CSSC[C@H](NC(=O)[C@H](CC3CCCCC3)NC(=O)[C@@H]3CCCN3C(=O)[C@@H]3CCCN3C(=O)[C@H](CC(=O)O)NC(=O)[C@H](CO)NC(=O)[C@H](CCCCN)NC1=O)C(=O)N[C@@H](CC(N)=O)C(=O)N1CCC[C@@H]1C(=O)N1CCC[C@H]1C(=O)N[C@@H](Cc1ccc(N)cc1)C(=O)N2` [Ex. 70] (HELM PEPTIDE1{[Nc1ccc(C[C@H](N[*:1])C(=O)[*:2])cc1].C.T.K.S.D.P.P.[Cha].C.N.[dP].P}$PEPTIDE1,PEPTIDE1,2:R3-10:R3|PEPTIDE1,PEPTIDE1,1:R1-13:R2$$$V2.0) yielded an IC50 of 69 nM. Work on `CC[C@H](C)[C@@H]1NC(=O)[C@@H]2CCCN2C(=O)[C@@H]2CCCN2C(=O)[C@H](CC(=O)O)NC(=O)[C@H](CO)NC(=O)[C@H](CCCCN)NC(=O)[C@H]([C@@H](C)O)NC(=O)[C@@H]2CSSC[C@H](NC1=O)C(=O)N[C@@H](CO)C(=O)N[C@H](CC(N)=O)C(=O)N1CCC[C@H]1C(=O)N[C@@H](Cc1ccccc1)C(=O)N2` [Ex. 69] (HELM PEPTIDE1{C.S.[dN].P.F.C.T.K.S.D.P.P.I}$PEPTIDE1,PEPTIDE1,1:R3-6:R3|PEPTIDE1,PEPTIDE1,1:R1-13:R2$$$V2.0) yielded an IC50 of 68 nM.
